Earlier results, collected in patent US20050163873A1, “Methods and formulations for treating glaucoma” (priority 2004, published 2005).

Legend:
rabbits [1] = system: rabbits
[2] = system: human Tenon's capsule fibroblast; details: human Tenon's capsule fibroblasts
diabetic rats [3] = system: diabetic rats
[4] = system: inducible nitric oxide synthase (iNOS)
[5] = system: nitric oxide and tumor necrosis factor alpha
[6] = system: primary cultures of cerebellar neurons
retina = details: guinea pig, in vivo
[7] = folic acid 400 μg associated with vitamin B6 and B12
rabbits [8] = system: rabbits; remark: listed apart in the source
heme oxygenase 1 = details: neuronal cell cultures
[9] = system: cultured retinal ganglion cells
[10] = system: cultured neuronal cells and astrocytes; details: pretreatment of cultured neuronal cells and astrocytes
hippocampal CA1 neurons = details: central infusion after forebrain ischemia, gerbil
[11] = system: tumor necrosis factor-alpha (TNF-α) and nitric oxide (NO)
HIV-1 enzyme integrase = HIV-1 enzyme integrase (Human immunodeficiency virus type 1 group M subtype B, UniProt P04585)
diabetic rats [12] = system: diabetic rats; remark: listed apart in the source
[13] = system: goldfish retinal explants; details: post-crush goldfish retinal explants, in the presence of fetal calf serum
[14] = system: cultured neurons from embryonic mouse cortex and striatum

CC(C)=CCC[C@](C)(O)[C@H]1CC[C@]2(C)[C@@H]1[C@H](O)C[C@@H]1[C@@]3(C)CC[C@H](O[C@@H]4O[C@H](CO)[C@@H](O)[C@H](O)[C@H]4O[C@@H]4O[C@H](CO)[C@@H](O)[C@H](O)[C@H]4O)C(C)(C)[C@@H]3CC[C@]12C [Ginsenoside Rg3]
neuroprotective effects on cultured cortical cells (cultured cortical cells): significant neuroprotective effects

Cc1c(C)c2c(c(C)c1O)CC[C@@](C)(CCC[C@H](C)CCC[C@H](C)CCCC(C)C)O2 [D-alpha-tocopherol]
results of filtering surgery (rabbits [1]): improve the results
fibroblast proliferation [2]: inhibit
amount of leukostasis (diabetic rats [3]): prevented the increases in leukostasis
retinal blood flow (diabetic rats [3]): prevented

N[C@H]1C(O)O[C@H](CO)[C@@H](O)[C@@H]1O (stereo partly shown) [glucosamine]
inducible nitric oxide synthase (iNOS) inhibition [4]: inhibits

O=c1c(O)c(-c2ccc(O)c(O)c2)oc2cc(O)cc(O)c12 [Quercetin]
oxidative injury (cortical cell cultures): neuroprotective
release of nitric oxide and tumor necrosis factor alpha [5]: inhibits
progression of selenite-induced cataract (rats): slow the progression

C[N+](C)(C)CC(O)CC(=O)[O-] (stereo not shown) [Carnitine]
glutamate neurotoxicity [6]: prevents
retinal injury following ischemia-reperfusion injury (retina): prevent

O=C(O)CCCCC1CCSS1 (stereo not drawn) [alpha-lipoic acid, Alpha-lipoic acid]
amount of leukostasis (diabetic rats [3]): normalized

Nc1nc2ncc(CNc3ccc(C(=O)N[C@@H](CCC(=O)O)C(=O)O)cc3)nc2c(=O)[nH]1 [folic acid]
reduction of homocysteine levels [7]: 30%

C=CCSSC[C@H](N)C(=O)O [S-Allylmercaptocysteine]
IOP (rabbits [8]): lower IOP

Oc1ccc(C=Cc2cc(O)cc(O)c2)cc1 [resveratrol, Resveratrol]
heme oxygenase 1 (heme oxygenase 1): induces

C/C1=C2/[N-][C@H]([C@H](CC(N)=O)[C@@]2(C)CCC(=O)NC[C@@H](C)OP(=O)([O-])O[C@H]2[C@@H](O)[C@@H](n3cnc4cc(C)c(C)cc43)O[C@@H]2CO)[C@]2(C)N=C(/C(C)=C3N=C(/C=C4N=C1[C@@H](CCC(N)=O)C\4(C)C)[C@@H](CCC(N)=O)[C@]\3(C)CC(N)=O)[C@@H](CCC(N)=O)[C@]2(C)CC(N)=O.[CH3-].[Co+3] [Methylcobalamin]
glutamate-induced neurotoxicity [9]: protects

COC1=C(OC)C(=O)C(C/C=C(\C)CC/C=C(\C)CC/C=C(\C)CC/C=C(\C)CC/C=C(\C)CC/C=C(\C)CC/C=C(\C)CC/C=C(\C)CC/C=C(\C)CCC=C(C)C)=C(C)C1=O [coenzyme Q10]
cell death due to glutamate neurotoxicity [10]: inhibited cell death

C[N+](C)(C)CCOP(=O)(O)OP(=O)([O-])OC[C@H]1O[C@@H](n2ccc(N)nc2=O)[C@H](O)[C@@H]1O [citicoline, Citicoline]
visual evoked potential and pattern electroretinography (ERG) parameters (patients with glaucoma): significant (P<0.01) improvement

CC(C)=CCC[C@](C)(O[C@@H]1O[C@H](CO[C@@H]2O[C@H](CO)[C@@H](O)[C@H](O)[C@H]2O)[C@@H](O)[C@H](O)[C@H]1O)[C@H]1CC[C@]2(C)[C@@H]1[C@H](O)C[C@@H]1[C@@]3(C)CC[C@H](O[C@@H]4O[C@H](CO)[C@@H](O)[C@H](O)[C@H]4O[C@@H]4O[C@H](CO)[C@@H](O)[C@H](O)[C@H]4O)C(C)(C)[C@@H]3CC[C@]12C [Ginsenoside Rb1, ginsenoside Rb1]
protection of hippocampal CA1 neurons against lethal ischemic damage (hippocampal CA1 neurons): protects
neuroprotective effects on cultured cortical cells (cultured cortical cells): significant neuroprotective effects

COc1cc(C[C@H]2C(=O)OC[C@@H]2Cc2ccc(OC)c(OC)c2)ccc1O [Arctigenin]
glutamate toxicity (cultured neurons): protect
DNA topoisomerase II inhibition (DNA topoisomerase II): inhibitor
tumor necrosis factor-alpha (TNF-α) and nitric oxide (NO) production [11]: inhibit
HIV-1 enzyme integrase inhibition (HIV-1 enzyme integrase): inhibit

NCCS(=O)(=O)O [Taurine]
ATPase activity (diabetic rats [12]): preserves
lipid peroxidation (diabetic rats [12]): significantly decreases
neuritic outgrowth [13]: increased length and density of neurites

CC(=O)N[C@@H](CS)C(=O)O [N-acetyl-L-cysteine]
neuronal cell survival rate [14]: increased
